The conditions of series [1]: Crystal.
Series [2] in a line: Molar enthalpy of transition or fusion. The following applies: Crystal; DSC.
A short description of series [3]: Solid-liquid equilibrium temperature. The following applies: Crystal.

Numbers after ± are expanded uncertainties.

Turning to `O=C(O)C1CCCCC1` [cyclohexanecarboxylic acid], in series [1] (DTA), the Normal melting temperature was 29.8 ± 0.5 °C. For the same compound, the “Molar enthalpy of transition or fusion” value in series [2] came out at 2.2 ± 0.0645 kcal/mol. The Solid-liquid equilibrium temperature is on record as 303.15 ± 0.26 K in series [3] (800 kPa, visual observation); 313.15 ± 0.52 K in series [3] (31000 kPa, visual observation); 323.15 ± 0.9 K in series [3] (63000 kPa, visual observation); 333.15 ± 1.3 K in series [3] (92000 kPa, visual observation); 343.15 ± 1.7 K in series [3] (121000 kPa, visual observation); 353.15 ± 2.1 K in series [3] (150000 kPa, visual observation).

Take `CC(=O)OC1CCCCC1` [cyclohexyl ethanoate]: the Normal melting temperature in series [1] (DTA) was -51.70 ± 0.4 °C. Besides, in series [2], the “Molar enthalpy of transition or fusion” value came to 0.809 ± 0.0406 kcal/mol.

In the case of `O=C(O)CC1CCCCC1` [cyclohexylethanoic acid], the Normal melting temperature in series [1] (DTA) is 28.8 ± 0.4 °C. Further, the “Molar enthalpy of transition or fusion” value in series [2] came out at 3.3 ± 0.086 kcal/mol.

For `CC(=O)OCCC1CCCCC1` [cyclohexylethyl acetate], the Normal melting temperature in series [1] (DTA) was -51.70 ± 0.39 °C.

For the compound `CCCCCCCCO` [octan-1-ol], the Normal melting temperature in series [1] was -14.60 ± 0.62 °C. For the same compound, the Solid-liquid equilibrium temperature in series [3] (216000 kPa, Closed cell (Static) method) was found to be 303.15 ± 1.7 K; in series [3] (268000 kPa, Closed cell (Static) method), 313.15 ± 1.9 K; in series [3] (329000 kPa, Closed cell (Static) method) it was 323.15 ± 2 K; in series [3] (400000 kPa, Closed cell (Static) method) it was 333.15 ± 2.2 K; in series [3] (480000 kPa, Closed cell (Static) method), 343.15 ± 2.3 K; in series [3] (569000 kPa, Closed cell (Static) method) it was 353.15 ± 2.6 K.
